Two compounds from ChEMBL document CHEMBL1145198, “Checkpoint kinase inhibitors: SAR and radioprotective properties of a series of 2-arylbenzimidazoles” (J Med Chem, 2005) can be followed below.

The assay addresses Serine/threonine-protein kinase Chk2 (Homo sapiens, UniProt O96017). The experiment in a line: Inhibition of recombinant human Chk2 kinase.

Chain of Serine/threonine-protein kinase Chk2 (O96017 whole entry): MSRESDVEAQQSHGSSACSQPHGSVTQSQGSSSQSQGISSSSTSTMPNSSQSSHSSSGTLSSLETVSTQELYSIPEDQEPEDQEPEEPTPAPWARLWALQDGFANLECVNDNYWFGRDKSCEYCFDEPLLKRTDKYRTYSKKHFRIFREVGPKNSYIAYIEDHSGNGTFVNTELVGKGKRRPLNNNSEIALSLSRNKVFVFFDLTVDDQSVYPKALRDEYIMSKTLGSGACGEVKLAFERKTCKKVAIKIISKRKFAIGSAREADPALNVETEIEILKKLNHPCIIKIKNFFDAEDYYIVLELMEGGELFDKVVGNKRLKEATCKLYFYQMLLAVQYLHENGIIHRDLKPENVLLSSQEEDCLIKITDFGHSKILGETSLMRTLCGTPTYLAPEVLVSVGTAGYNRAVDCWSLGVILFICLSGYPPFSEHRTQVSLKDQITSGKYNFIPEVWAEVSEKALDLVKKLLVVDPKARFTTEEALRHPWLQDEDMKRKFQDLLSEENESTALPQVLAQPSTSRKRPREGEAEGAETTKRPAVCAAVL

Turning to `NC(=O)c1ccc2nc(-c3ccc(C(=O)Nc4ccc(Cl)c(Cl)c4)cc3)[nH]c2c1`, the IC50 is over 10 µM. With `CN(C)C(=O)c1ccc2[nH]c(-c3ccc(Oc4ccccc4)cc3)nc2c1`, the IC50 is over 10 µM.
